In patent US20220073475A1, “5-MEMBERED HETEROARYL COMPOUNDS CONTAINING A HYDROXAMATE MOIETY AND THEIR USE” (UNIVERSITE DE LILLE, priority 2019, published 2022):

How the values were obtained:
[1] = system: TLM1 cells; assay: X-ray radiation in combination with compound, propidium iodide dead cells, ratio of corrected AUC; format: cell-based, canine; conditions: for Potency of X-ray radiations in combination with compound (in words): TLM1
Experimental: (§1) Canine melanoma TLM-1 cells are maintained in DMEM medium supplemented with GlutaMAX™, 10% fetal bovine serum, 1× Hepes and 1% penicillin-streptomycin.
TLM-1 cells were seeded with the BioTek MicroFlo™ dispenser in μClear® black 384-well plates (Greiner) at the density of 20,000 cells/mL in 50 μL. Compounds for pre-treatment were added 2 h after the seeding, using an Echo 550 (Labcyte). The next day, cells were washed five times with 40 μL media without phenol red with a plate washer (Hydrospeed, Tecan). Cells were irradiated with 4, 6, 8, 12, 16, 20 and 24 Gray (Gy). […] This step was repeated every 72 h after radiation. Plates were incubated at 37° C. and 5% CO2. […] 4 images per well were collected. Images were analyzed with Columbus software (Perkin Elmer). In this system we used predefined building blocks to measure different parameters on nuclei detected. We applied a threshold based on propidium iodide intensity in nuclei of controls to select and count dead cells. By dividing the number of dead cells by the number of nuclei detected we obtained the percentage of dead cells. AUC were determined in one experiment with triplicate incubates on percentage of cells labelled with propidium iodide and were corrected by the percentage of cells labelled with propidium iodide at 0 Gy. Ratio of AUC corrected was determined as followed: Activity=(Area of the dose-concentration curve of cytotoxic agent combined with one concentration of compound corrected by the effect of the compound alone at 0Gy)/(Area of the dose-concentration curve of radiation alone corrected by the effect of the vehicle at 0Gy).

[2] = system: TLM1 cells; assay: UV-C radiation in combination with compound, ratio of % propidium iodide labelled cells; format: cell-based, canine; conditions: for Potency of UV-C radiations in combination with compound (in words): TLM1
Experimental: as §1
Plates were incubated at 37° C. and 5% CO2. […] 4 images per well were collected. Images were analyzed with Columbus software (Perkin Elmer). In this system we used predefined building blocks to measure different parameters on nuclei detected. We applied a threshold based on propidium iodide intensity in nuclei of controls to select and count dead cells. By dividing the number of dead cells by the number of nuclei detected we obtained the percentage of dead cells.

[3] = system: RPMI 8226 cells; assay: Epoxomicin (EPX) in combination with compound 3, Annexin V/PI flow cytometry; format: cell-based, human; conditions: RPMI 8226 (FIG. 1A), compound at 7.5 μM, 15 μM and 30 μM
Experimental: (§2) RPMI 8226 and MOPC315.BM cells were cultured in RPMI 1640 medium supplemented with L-glutamine, non-essential amino acids, 2-mercaptoethanol and 10% fetal calf serum.
(§3) Cells were seeded in 24-well culture plates at 150,000 cells/well/mL. […] Cells were treated with protease inhibitors for 24 and 48 hours before analysis for apoptosis and cell death by flow cytometry. The cells were centrifuged at 300×g for 5 minutes and washed with cold FACS buffer (PBS 1× with 2 mM EDTA and 0.5% BSA. Then the cells were resuspended in Annexin V binding buffer (BioLegend) at a concentration of 10^6 cells/mL, and 100 μL of each sample was transferred to a 5 mL FACS tube. 5 μL of Annexin V-FITC Ab (BioLegend) and 5 μL of propidium iodide (BioLegend) were added to each sample and incubated 15 min at RT. Finally, 400 μL of Annexin V binding buffer was added to each tube and the cells were analyzed using BD FACSCanto or BD Fortessa machines within an hour. Annexin+ but PI− cells were identified as apoptotic and Annexin+ PI+ as dead cells.

[4] = system: MOPC315.BM cells; assay: as above; format: cell-based, murine; conditions: MOPC315.BM (FIG. 1B), compound at 7.5 μM, 15 μM and 30 μM
Experimental: as §2, §3

[5] = system: OPM2 cells; assay: CFZ potency increase, ratio of CC50 of CFZ alone / with compound; format: cell-based, human
How it was run: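 OPM2 cells (12,000/well, 0.2% DMSO) treated with compound plus carfilzomib, with NucView 488 caspase-3/7 substrate (1 μM) and Hoechst 33342, 37 °C; confocal imaging over time gives % apoptotic cells. CFZ CC50 from 4-parameter fits alone and with compound; activity = CC50 alone / CC50 with compound.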

[6] = system: HeLa cells; assay: as above; format: cell-based, human; conditions: compound at 7.5 μM
Source text: Human HeLa cells (uterine cervical carcinoma) are maintained in DMEM medium supplemented with GlutaMAX™, 10% fetal bovine serum and 1% penicillin-streptomycin.
(§4) We developed a cell-based, high content assay allowing the rapid detection and quantification of apoptotic cells. Caspase-3/7 activity was detected in real-time using the NucView™ 488 Caspase-3 substrate (Biotium), where the caspase-3/7 substrate peptide sequence DEVD is attached to a nucleic acid dye. The NucView™ 488 reagent crosses the plasma membrane to enter the cytoplasm, where the dye is unable to bind to DNA and remains non-fluorescent. Once the substrate has been cleaved by activated caspase-3/7 in apoptotic cells, the high-affinity DNA dye is released and migrates to the cell nucleus to stain the nucleus with a bright green fluorescence. All cell nuclei were also labeled with Hoechst 33342 (Ozyme).
(§5) For HeLa and MCF7 cells, briefly, cells were seeded in 384-microtiter well plate (1500 HeLa cells or 5000 MCF7 cells in 40 μL full medium per well) and let to attach overnight. Then the compound of the invention and the RE stressor were transferred to the cell culture plate using an Echo555 liquid handler (Labcyte) and 30 μL medium containing NucView™ and Hoechst 33342 were added. Final NucView™ 488 and Hoechst 33342 concentrations were 1 μM and 20 ng/mL, respectively. DMSO content was maintained at 0.2%. The microplates were incubated at 37° C. and 5% CO2 in an automated LiCONiC STR240 UB cell incubator, and images were acquired at various times at 405 nm and 488 nm with the high-resolution automated confocal microscope INCell 6000 (GE). Four fields per well were read with the 20× objective in a confocal mode. The BioCel workstation was managed by VWorks automation control software (Agilent).
(§6) For all cells, Columbus software (Perkin) was used for image quantification and analysis. First, Hoechst 33342 staining was used for an automated detection of nuclei, in which the mean fluorescence intensity for NucView™ 488 was quantified. Inspection of control cells at initial time was used to set a threshold level of NucView™ 488 fluorescence to separate non apoptotic cells from apoptotic cells. Finally, for each well, the result was expressed as percentage of apoptotic cells in the total cell population. CC50 values were calculated from concentration-response curves by a nonlinear regression analysis at four parameters using Excel Fit or GraphPad Prim softwares.
(§7) Activity=(% of apoptotic cells with cytotoxic agent in combination with compound of the invention)/(% of apoptotic cells with cytotoxic agent alone). • Ratio of CC50: The CC50 of the cytotoxic agent was calculated in absence and in presence of a compound of the invention.
(§8) Activity=(CC50 of agent alone)/(CC50 of agent with compound). • Ratio of AUC. Activity=(Area of the dose-concentration curve of cytotoxic agent combined with one concentration of compound)/(Area of the dose-concentration curve of cytotoxic agent alone). (Lehar J. et al, 2008 (molecular systems biology 4:215)).

[7] = system: MCF7 cells; assay: as above; format: cell-based, human; conditions: MCF7, compound at 15 μM
Experimental: Human epithelial MCF7 cells (mammary gland adenocarcinoma) are maintained in EMEM medium supplemented with GlutaMAX™, 10% fetal bovine serum, 0.01 mg insulin and 1% penicillin-streptomycin.
as §4, §5, §6, §7, §8

Compound	Potency of X-ray radiations in combination with compound (in words) [1]	Potency of UV-C radiations in combination with compound (in words) [2]	Cytotoxicity of epoxomicin in combination with compound [3]	Cytotoxicity of epoxomicin in combination with compound [4]	Activity: ratio (CC50 of CFZ alone)/(CC50 of CFZ in combination with compound of the invention) ([5]; OPM2, compound at 7.5 μM (Table 5))	Activity: ratio (CC50 of CFZ alone)/(CC50 of CFZ in combination with compound of the invention) ([5]; OPM2, compound at 7.5 μM (Table 6))	Activity: ratio (CC50 of CFZ alone)/(CC50 of CFZ in combination with compound of the invention) [6]	Activity: ratio (CC50 of CFZ alone)/(CC50 of CFZ in combination with compound of the invention) [7]	Activity: ratio of corrected AUC of X-ray radiation in combination with compound / corrected AUC of X-ray radiation alone ([1]; TLM1, compound at 30 μM)	Activity: ratio of percentage of cells labelling with propidium iodide, compound vs vehicle ([2]; TLM1, 15 μM compound 24 h before and just after UV-C, 48 h after UV-C at 400 J/m^2, mean of three experiments)
O=C(C[C@@H](Cc1ccc2ccccc2c1)n1cc(CNC(=O)c2ccc(F)cc2)nn1)NO [Compound 3, 4-Fluoro-N-[1-(R-2-hydroxycarbamoyl-1-naphthalen-2-ylmethyl-ethyl)-1H-[1,2,3]-triazol-4-ylmethyl]-benzamide]	increase the potency	increase the potency	increased	increased						
Cc1cc(C(=O)NCc2cn([C@@H](CC(=O)NO)Cc3ccc4ccccc4c3)nn2)ccc1F [Compound 80, 4-fluoro-N-[[1-[(1R)-3-(hydroxyamino)-1-(2-naphthylmethyl)-3-oxo-propyl]triazol-4-yl]methyl]-3-methyl-benzamide]	increase the potency	increase the potency			2.2	2.2	3.6	2.4	2.7	2.3
